Results as given in publication PMC4416304, “Nickel quercetinase, a “promiscuous” metalloenzyme: metal incorporation and metal ligand substitution studies” (BMC Biochemistry, 2015).
Numbering of substitutions follows the chain as printed.

Assays:
Test in all cases: intrinsic protein fluorescence titration
Type in all cases: binding
[1] = target: T1, QueD (Ni-QueD; Streptomyces quercetinase) (Streptomyces sp. FLA, UniProt A2VA43, H69A)
T1 construct: C-terminal StrepII tag kept (pET23a-queD-Strep), E. coli BL21(DE3) pLysS grown with Ni2+; monocupin, native enzyme a dimer
T1 sequence (A2VA43 1-186 H69A): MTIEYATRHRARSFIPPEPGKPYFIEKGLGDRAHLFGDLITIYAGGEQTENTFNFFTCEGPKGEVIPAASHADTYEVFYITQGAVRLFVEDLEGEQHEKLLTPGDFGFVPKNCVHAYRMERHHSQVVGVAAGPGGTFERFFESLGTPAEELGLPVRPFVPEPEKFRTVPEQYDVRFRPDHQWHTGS
From the text: (§1) intrinsic protein fluorescence titration on QueD (Ni-QueD; Streptomyces quercetinase)

[2] = target: T2, QueD (Ni-QueD; Streptomyces quercetinase) (Streptomyces sp. FLA, UniProt A2VA43, E76H)
T2 construct: C-terminal StrepII tag kept (pET23a-queD-Strep), E. coli BL21(DE3) pLysS grown with Ni2+; monocupin, native enzyme a dimer
T2 sequence (A2VA43 1-186 E76H): T1 sequence (A2VA43 1-186 H69A) with A69H, E76H
From the text: as §1

[3] = target: T3, QueD (Ni-QueD; Streptomyces quercetinase) (Streptomyces sp. FLA, UniProt A2VA43, E76D)
T3 construct: C-terminal StrepII tag kept (pET23a-queD-Strep), E. coli BL21(DE3) pLysS grown with Ni2+; monocupin, native enzyme a dimer
T3 sequence (A2VA43 1-186 E76D): T1 sequence (A2VA43 1-186 H69A) with A69H, E76D
From the text: as §1

[4] = target: T4, QueD (Ni-QueD; Streptomyces quercetinase) (Streptomyces sp. FLA, UniProt A2VA43, H71A)
T4 construct: C-terminal StrepII tag kept (pET23a-queD-Strep), E. coli BL21(DE3) pLysS grown with Ni2+; monocupin, native enzyme a dimer
T4 sequence (A2VA43 1-186 H71A): T1 sequence (A2VA43 1-186 H69A) with A69H, H71A
From the text: as §1

[5] = target: T5, QueD (Ni-QueD; Streptomyces quercetinase) (Streptomyces sp. FLA, UniProt A2VA43, H115A)
T5 construct: C-terminal StrepII tag kept (pET23a-queD-Strep), E. coli BL21(DE3) pLysS grown with Ni2+; monocupin, native enzyme a dimer
T5 sequence (A2VA43 1-186 H115A): T1 sequence (A2VA43 1-186 H69A) with A69H, H115A
From the text: as §1

[6] = target: T6, QueD (Ni-QueD; Streptomyces quercetinase) (Streptomyces sp. FLA, UniProt A2VA43)
T6 construct: C-terminal StrepII tag kept (pET23a-queD-Strep), E. coli BL21(DE3) pLysS grown with Ni2+; monocupin, native enzyme a dimer
T6 sequence (A2VA43 1-186): T1 sequence (A2VA43 1-186 H69A) with A69H
From the text: intrinsic protein fluorescence titration on QueD (Ni-QueD; Streptomyces quercetinase) | The K D value of the complex of Ni-QueD with quercetin

O=c1c(O)c(-c2ccc(O)c(O)c2)oc2cc(O)cc(O)c12 [quercetin] was tested, and the Kd [1] was 3.1 µM, the Kd [2] was 1.3 µM and the Kd [3] was 4 µM. For the same compound, the Kd [4] was 10.4 µM, the Kd [5] was 2.6 µM and the Kd [6] was 10.1 ± 2.9 µM.
